Data taken from patent US10689622B2, “Culture medium for proliferating stem cell, which contains sulfated compound” (AJINOMOTO CO., INC., priority 2012, dated 2020).

Key:
[1] = biological target: T1, bFGF (Homo sapiens, UniProt P09038); assay: Evaluation of bFGF stabilization in Lonza serum-free medium (ELISA); format: biochemical; settings: for effectiveness ELISA: effectiveness in ELISA evaluation of mesenchymal stem cells (medium), 4° C. control ratio
T1 construct: purchased Lonza (via TAKARA BIO INC.) Ser. No. 00/190,632
Method: (§1) A test compound was dissolved in phosphate buffered saline, and diluted 10-fold with a serum-free medium to adjust to the concentrations shown in Table 4 (test sample). The test sample was left standing in a tightly sealed Falcon tube at 37° C. for 7 days (Tables 5 to 8-2) or 3 days (Table 8-3), and the bFGF concentration was quantified by ELISA measurement. A phosphate buffered saline without a test compound was diluted 10-fold with a serum-free medium, and left standing at 37° C. or 4° C. for 7 days or 3 days, and used as a control.
(§2) A commercially available measurement kit (human bFGF ELISA kit, ELH-bFGF-001, Ray Biotech) was used for quantification of bFGF in the medium. The measurement procedures followed the protocol attached to the kit. The bFGF concentration of the serum-free medium was calculated from the analytical curve (conversion formula) drawn from the absorbance of an analytical curve standard solution. The evaluation criteria of Tables 5-8 are as follows:
as §1, with “Table 13” for “Table 4”, “7 days,” for “7 days (Tables 5 to 8-2) or 3 days (Table 8-3),”, “7” for “7 days or 3”
as §2, with “Table 13” for “Tables 5-8”, “follows: […]” for “follows:”

[2] = biological target: T1, bFGF; assay: Evaluation of bFGF stabilization in Essential 8 medium (ELISA); format: biochemical; settings: 37° C. for 7 days
Method: as §2
(§3) A test compound was dissolved in phosphate buffered saline, and diluted 10-fold with a serum-free medium to adjust the concentration shown in Table 4 (test sample). The test sample was left standing in a tightly sealed Falcon tube at 37° C. for 7 days, and the bFGF concentration was quantified by ELISA measurement. A phosphate buffered saline without a test compound was diluted 10-fold with Essential 8 medium or ReproFF2 medium, and left standing at 37° C. or 4° C. for 7 days, and used as a control.
as §2, with “Table 13” for “Tables 5-8”
as §3, with “Table 12” for “Table 4”

[3] = Measurement of content level of sulfur in test compound (ICP); format: physicochemical; settings: ICPS-8100, evaluation samples containing 0.01 wt % test compound
From the text: (§4) The content level of sulfur in the sulfated saccharide is generally not less than 5 wt %, preferably not less than 10 wt %, more preferably not less than 15 wt %, and the upper limit is generally not more than 40 wt %, preferably not more than 35 wt %, more preferably not more than 30 wt %. […] Here, the content level of sulfur is a proportion in wt % of sulfur derived only from the sulfate group in sulfated saccharides, which can be measured by a method known in the field (e.g., rhodizonate method, elemental analysis or luminescent spectral analysis).
as §4, with “polymer” for “saccharide”, “wt” for “wt %, preferably not more than 35 wt %, more preferably not more than 30 wt”, “in” for “derived only from”, “the” for “the sulfate group in”, “polymer,” for “saccharides,”, “such as” for “(e.g.,”
The relationship between the content level of sulfur in a test compound (sulfur content) and the cell proliferation promoting effect was examined. The sulfur content was measured using ICPS-8100 manufactured by SHIMADZU CORPORATION and analyzed using ICPS-8000 series Ver1.03. As the reference standard of sulfur, the standard for ICP-MS manufactured by Accu Standard was used. Sulfur reference standard solutions (0, 1, 10, 30, 50 ppm) were prepared, and the sulfur content of the evaluation samples containing 0.01 wt % test compound was measured by an analytical curve method.

[4] = system: Human bone marrow-derived mesenchymal stem cells; assay: Mesenchymal stem cell proliferation system (cell number by DNA quantification)
Method: Human bone marrow-derived mesenchymal stem cells (Lonza, Human Mesenchymal Stem Cell) cultured in mesenchymal stem cell-dedicated medium (Lonza, MSCGM) or Dulbecco's Modified Eagle Medium (Invitrogen, GIBCO D-MEM) containing inactivated fetal bovine serum (Invitrogen, GIBCO FBS) and penicillin-streptomycin (Sigma-Aldrich Co. LLC.) were cultured in exchanged Lonza serum-free medium. The mesenchymal stem cells thus-acclimated to serum-free culture were suspended in Lonza serum-free medium, and seeded on a 24 well culture plate (Nippon Becton Dickinson Company, Ltd., Falcon culture plate) at 20,000 cells/well or a 6 well culture plate (Nippon Becton Dickinson Company, Ltd., Falcon culture plate) at 50,000 cells/well. Then, a test compound solution after filter sterilization and adjustment to a given concentration was added, and the cells were cultured in an incubator (Thermo Scientific, Forma incubator) under the 5% CO2/37° C. conditions for 7 to 8 days. When the medium exchange was necessary, the medium was exchanged 2 to 3 days after the seeding. In this case, the test compound solution was also added again in the same manner as in seeding. In this case, various compound solutions were added again in the same manner as in seeding. After culturing for 7 to 8 days, the medium was removed and DNA quantification was performed. As a control, the cells were cultured in the same manner in a medium without a test compound and added with phosphate buffered saline.
The medium in the 24 well culture plate was removed, and the cells were washed with phosphate buffered saline. The sodium lauryl sulfate solution (500 μl/well) was added, and the mixture was left standing at 37° C. for 4 hours. The sodium lauryl sulfate solution (1.0 ml) was also added to a cell pellet with a known cell number, and the mixture was left standing at 37° C. for 4 hours. As for the cells in the 24 well culture plate, a part (50 μl) of the lysate was transferred to a 96 well black microplate. The solution used for treating the cell pellets was successively diluted with sodium lauryl sulfate solution and used as solutions for drawing an analytical curve. Also, a part (50 μl) of the solutions for drawing an analytical curve was each transferred to the 96 well black microplate. […] The fluorescence was measured by a microplate reader (excitation wavelength: 355 nm, measurement wavelength: 460 nm) within 5 minutes from the addition. The cell number of the 24 well cell culture plate was calculated from the analytical curve drawn (conversion formula). The evaluation criteria were as follows.

[5] = Lonza serum-free medium, 37° C. for 7 days, test compound 25 ng/ml
[6] = Lonza serum-free medium, 37° C. for 7 days, test compound 250 ng/ml
[7] = Lonza serum-free medium, 37° C. for 7 days, test compound 25 μg/ml
[8] = Lonza serum-free medium, 37° C. for 7 days, test compound 250 μg/ml

T1 sequence (P09038 143-288): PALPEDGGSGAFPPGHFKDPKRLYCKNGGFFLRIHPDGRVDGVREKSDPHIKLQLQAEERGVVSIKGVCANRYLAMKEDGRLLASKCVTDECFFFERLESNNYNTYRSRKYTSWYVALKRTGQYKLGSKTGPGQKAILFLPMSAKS

effectiveness ELISA [1] | sulfur content Found (inorganic analysis) [3] [wt %] | concentration showing a suppressive effect on a decrease in the bFGF concentration of the medium [2] | Compound | bFGF concentration relative to that of 4° C. control (ELISA) [1, 5] | bFGF concentration relative to that of 4° C. control (ELISA) [1, 6] | bFGF concentration relative to that of 4° C. control (ELISA) [1, 7] | bFGF concentration relative to that of 4° C. control (ELISA) [1, 8] | bFGF concentration relative to that of 4° C. control (ELISA) ([2]; test compound 250 pg/ml) | bFGF concentration relative to that of 4° C. control (ELISA) ([2]; test compound 25 ng/ml) | bFGF concentration relative to that of 4° C. control (ELISA) ([2]; test compound 250 ng/ml) | bFGF concentration relative to that of 4° C. control (ELISA) ([2]; test compound 25 μg/ml) | bFGF concentration relative to that of 4° C. control (ELISA) ([2]; test compound 250 μg/ml) | further results
– | – | – | OC[C@H]1O[C@H](O[C@H]2[C@H](O)[C@@H](O)[C@@H](O[C@H]3[C@H](O)[C@@H](O)C(O)O[C@@H]3CO)O[C@@H]2CO)[C@H](O)[C@@H](O)[C@@H]1O (stereo partly drawn) [maltotriose, reference compound] | x (bFGF concentration was less than 10% relative to that of 4 °C control) | x (bFGF concentration was less than 10% relative to that of 4 °C control) | x (bFGF concentration was less than 10% relative to that of 4 °C control) | x (bFGF concentration was less than 10% relative to that of 4 °C control) | x (bFGF concentration was less than 10% relative to that of 4 °C control) | x (bFGF concentration was less than 10% relative to that of 4 °C control) | x (bFGF concentration was less than 10% relative to that of 4 °C control) | x (bFGF concentration was less than 10% relative to that of 4 °C control) | x (bFGF concentration was less than 10% relative to that of 4 °C control) | –
+++ (+++ 70%<) | 19 | not less than 25 μg/ml | O=S(=O)([O-])OC1C(OS(=O)(=O)[O-])C(OS(=O)(=O)[O-])C(OS(=O)(=O)[O-])C(OS(=O)(=O)[O-])C1OS(=O)(=O)[O-].[K+].[K+].[K+].[K+].[K+].[K+] (stereo not drawn) [myo-inositol 6SO3K] | x (bFGF concentration was less than 10% relative to that of 4 °C control) | x (bFGF concentration was less than 10% relative to that of 4 °C control) | + (bFGF concentration was not less than 30% and less than 50% relative to that of 4 °C control) | ++ (bFGF concentration was not less than 50% and less than 70% relative to that of 4 °C control) | x (bFGF concentration was less than 10% relative to that of 4 °C control) | x (bFGF concentration was less than 10% relative to that of 4 °C control) | x (bFGF concentration was less than 10% relative to that of 4 °C control) | +++ (bFGF concentration was not less than 70% relative to that of 4 °C control) | +++ (bFGF concentration was not less than 70% relative to that of 4 °C control) | –
– | – | – | NC(COS(=O)(=O)[O-])C(=O)O.[Na+] (stereo not drawn) [serine SO3Na] | x (bFGF concentration was less than 10% relative to that of 4 °C control) | x (bFGF concentration was less than 10% relative to that of 4 °C control) | − (bFGF concentration was not less than 10% and less than 30% relative to that of 4 °C control) | +++ (bFGF concentration was not less than 70% relative to that of 4 °C control) | – | – | – | – | – | concentration showing a suppressive effect on a decrease in the bFGF concentration of the medium ([1]; Lonza serum-free medium, 37° C. for 7 days): not less than 25 μg/ml; bFGF concentration relative to that of 4° C. control (ELISA) ([1]; Lonza serum-free medium, 37° C. for 7 days, test compound 250 pg/ml): x (bFGF concentration was less than 10% relative to that of 4 °C control); number of cells relative to control ([4]; test compound 25 pg/ml, mesenchymal stem cells): — (100-50); number of cells relative to control ([4]; test compound 250 pg/ml, mesenchymal stem cells): — (100-50); number of cells relative to control ([4]; test compound 25 ng/ml, mesenchymal stem cells): — (100-50); number of cells relative to control ([4]; test compound 250 ng/ml, mesenchymal stem cells): — (100-50)
+ (+ 30%<) | 23 | – | glycerol SO3Na | x (bFGF concentration was less than 10% relative to that of 4 °C control) | x (bFGF concentration was less than 10% relative to that of 4 °C control) | x (bFGF concentration was less than 10% relative to that of 4 °C control) | x (bFGF concentration was less than 10% relative to that of 4 °C control) | – | – | – | – | – | –
++ (++ 50%<) | – | not less than 250 μg/ml | tartrate-SO3Na | x (bFGF concentration was less than 10% relative to that of 4 °C control) | − (bFGF concentration was not less than 10% and less than 30% relative to that of 4 °C control) | x (bFGF concentration was less than 10% relative to that of 4 °C control) | x (bFGF concentration was less than 10% relative to that of 4 °C control) | x (bFGF concentration was less than 10% relative to that of 4 °C control) | x (bFGF concentration was less than 10% relative to that of 4 °C control) | x (bFGF concentration was less than 10% relative to that of 4 °C control) | x (bFGF concentration was less than 10% relative to that of 4 °C control) | − (bFGF concentration was not less than 10% and less than 30% relative to that of 4 °C control) | concentration at which a decrease in the protein amount of FGF is not suppressed ([1]; as shown in the Examples (methods of Examples I-1 and II-1)): not more than 250 μg/ml; effectiveness cells ([4]; growth of mesenchymal stem cell, control ratio): ◯ (◯ not leas than 100%); concentration showing promoted cell proliferation as compared to the control ([4]; mesenchymal stem cells, Lonza serum-free medium): 2.5 ng/mL
